Laboratory results from ChEMBL document CHEMBL3885861, “Open TG-GATES”.

Organism: Rattus norvegicus
Assay: Open TG-GATES - Regimen: Daily Repeat
Format: toxicity, organism-based, Sprague-Dawley
Design: regimen Daily Repeat, gender Male, age 6 weeks
Conditions: in vivo, po, 10 mg/kg, […], route gavage, dose level Low; for KIDNEY_L / KIDNEY_R / KIDNEY_TOTAL: tissue Kidney; for LIVER: tissue Liver; for A/G / ALP / ALT / AST / BUN / CRE / Ca / Cl / DBIL / GLC / IP / K / LDH / Na / PL / RALB / TBIL / TC / TG / TP / gamma-GTP: tissue Plasma

`CN(C)CCN(Cc1cccs1)c1ccccn1` was tested, and the Lym (tissue Blood, time 28 day) was 78.8%, the MCH (tissue Blood, time 28 day) was 20.2 pg and the MCHC (tissue Blood, time 28 day) was 34.5%. The MCV (tissue Blood, time 28 day) was 58.6 fL, the Mono (tissue Blood, time 28 day) was 2.2% and the Neu (tissue Blood, time 28 day) was 17.2%. For the same compound, the PT (tissue Blood, time 28 day) was 15.8 s, the Plat (tissue Blood, time 28 day) was 96.3 x10_4/uL and the RBC (tissue Blood, time 28 day) was 758 x10_4/ul. For the same compound, the Ret (tissue Blood, time 28 day) was 2.6%, the WBC (tissue Blood, time 28 day) was 105 x10_2/uL and the KIDNEY_L (time 7 day) was 1 g. The KIDNEY_R (time 7 day) was 1 g, the KIDNEY_TOTAL (time 7 day) was 2 g and the KIDNEY_L (time 14 day) was 1.1 g. It also gave a KIDNEY_R (time 14 day) of 1.2 g, a KIDNEY_TOTAL (time 14 day) of 2.3 g and a KIDNEY_L (time 28 day) of 1.2 g. It also gave a KIDNEY_R (time 28 day) of 1.3 g, a KIDNEY_TOTAL (time 28 day) of 2.5 g and an LIVER (time 7 day) of 10.6 g. The LIVER (time 14 day) was 12.3 g, the LIVER (time 28 day) was 14.3 g and the A/G (time 7 day) was 1.1. For the same compound, the ALP (time 7 day) was 1638.2 IU/L, the ALT (time 7 day) was 35.6 IU/L and the AST (time 7 day) was 66.6 IU/L. For the same compound, the BUN (time 7 day) was 18.6 mg/dL, the CRE (time 7 day) was 0.2 mg/dL and the Ca (time 7 day) was 10.4 mg/dL. For the same compound, the Cl (time 7 day) was 108.8 meq/L, the DBIL (time 7 day) was 0 mg/dL and the GLC (time 7 day) was 174.6 mg/dL. It also gave an IP (time 7 day) of 6.8 mg/dL, a K (time 7 day) of 4.7 meq/L and an LDH (time 7 day) of 183.8 IU/L. It also gave a Na (time 7 day) of 144.2 meq/L, a PL (time 7 day) of 129.6 mg/dL and an RALB (time 7 day) of 3 g/dL. The TBIL (time 7 day) was 0.008 mg/dL, the TC (time 7 day) was 63.2 mg/dL and the TG (time 7 day) was 109.2 mg/dL. For the same compound, the TP (time 7 day) was 5.7 g/dL, the gamma-GTP (time 7 day) was 1 IU/L and the A/G (time 14 day) was 1.1. For the same compound, the ALP (time 14 day) was 1409 IU/L, the ALT (time 14 day) was 39.4 IU/L and the AST (time 14 day) was 68.6 IU/L. The BUN (time 14 day) was 17.6 mg/dL, the CRE (time 14 day) was 0.2 mg/dL and the Ca (time 14 day) was 10.2 mg/dL. For the same compound, the Cl (time 14 day) was 108.2 meq/L, the DBIL (time 14 day) was 0.002 mg/dL and the GLC (time 14 day) was 175.4 mg/dL. For the same compound, the IP (time 14 day) was 6.7 mg/dL, the K (time 14 day) was 4.2 meq/L and the LDH (time 14 day) was 177.2 IU/L. For the same compound, the Na (time 14 day) was 143.2 meq/L, the PL (time 14 day) was 137.2 mg/dL and the RALB (time 14 day) was 2.9 g/dL. For the same compound, the TBIL (time 14 day) was 0.012 mg/dL, the TC (time 14 day) was 71.8 mg/dL and the TG (time 14 day) was 88.8 mg/dL. The TP (time 14 day) was 5.6 g/dL, the gamma-GTP (time 14 day) was 1 IU/L and the A/G (time 28 day) was 1.2. The ALP (time 28 day) was 1369.6 IU/L, the ALT (time 28 day) was 45.8 IU/L and the AST (time 28 day) was 73.4 IU/L. For the same compound, the BUN (time 28 day) was 20.4 mg/dL, the CRE (time 28 day) was 0.2 mg/dL and the Ca (time 28 day) was 10.3 mg/dL. It also gave a Cl (time 28 day) of 107.6 meq/L, a DBIL (time 28 day) of 0.004 mg/dL and a GLC (time 28 day) of 189 mg/dL. The IP (time 28 day) was 6.5 mg/dL, the K (time 28 day) was 3.9 meq/L and the LDH (time 28 day) was 183.6 IU/L. For the same compound, the Na (time 28 day) was 143.2 meq/L, the PL (time 28 day) was 142.6 mg/dL and the RALB (time 28 day) was 3.2 g/dL. The TBIL (time 28 day) was 0.026 mg/dL, the TC (time 28 day) was 72.4 mg/dL and the TG (time 28 day) was 111 mg/dL. For the same compound, the TP (time 28 day) was 5.7 g/dL and the gamma-GTP (time 28 day) was 1.4 IU/L.
